{
  "source": "patent US20210355116A1",
  "about": "“METHODS OF PRODUCING NARONAPRIDE TRIHYDRATE” (Renexxion, LLC, priority 2018, published 2021)",
  "key": {"[1]": {"assay": "Stability of the trihydrate form stored in bulk in a GMP storage facility", "format": "physicochemical", "settings": "room temperature, RH >30%, up to 11 years", "experimental": "The trihydrate form was evaluated for stability with regard to purity and strength over a time period of up to 11 years, by storing it in a GMP facility under controlled conditions of temperature and relative humidity (temperature=room temperature and relative humidity >30%)."}, "[2]": {"assay": "Bulk stability under stressed conditions, one or two weeks", "format": "physicochemical", "settings": "all temperatures and humidities tested, one week or two weeks", "experimental": "Bulk Stability Under Stressed Conditions: About 20-30 mg of the trihydrate form of the dihydrochloride salt was weighed into HPLC vials and stressed at 25° C. and 60% relative humidity (open), 40° C. and 75% relative humidity (open), and 60° C. (closed) for one week and for two weeks."}, "[3]": {"assay": "Bulk stability in very high humidity, one week", "format": "physicochemical", "experimental": "Bulk Stability in Very High Humidity: The trihydrate form of the dihydrochloride salt was stressed at 25° C. and 97% relative humidity (open), 40° C. and 96% relative humidity (open), and 60° C. and 96% relativity humidity (open) for one week."}, "[4]": {"settings": "for Resulting Form: slurry, antisolvent Water, ambient, 3 weeks", "experimental": "Noncompetitive Slurry Experiments for Polymorph Screening: Noncompetitive slurry experiments were performed as a supplemental polymorph screening method. When suspensions of a polymorphic material are prepared, any polymorphic form with a lower solubility (more thermodynamically stable form) can nucleate. The nucleated forms can convert all the residual solids to the nucleated form via solvent-mediated phase transition. Suspensions of the isolated Form I were prepared by adding excess solid to several different solvent systems. The suspensions were stirred vigorously at ambient temperature for 3 weeks. The remaining solids were collected by vacuum filtration and analyzed by powder X-ray diffraction to determine if any changes in the crystalline form of the solids occurred."}, "[5]": {"assay": "Dehydration profile by thermographic analysis (TGA)", "format": "physicochemical", "settings": "25° C. to 250° C.", "experimental": "Thermographic analysis (TGA) curves were generated for the anhydrate and trihydrate using a Perkin Elmer TGA-7. Three to five milligram samples were weighed into aluminum sample pans and run under dry nitrogen at 5° C./minute from 25° C. to 250° C. The data were exported to Excel to enable plotting.\nThe two differ in the appearance of the dehydration mass loss observed for the trihydrate and absent as expected from the anhydrate. Dehydration of the trihydrate started immediately upon start of heating and was complete by approximately 50° C. Complete dehydration below 100° C. is consistent with the assignment of the trihydrate as a channel type hydrate."}, "[6]": {"assay": "12-month stability of the anhydrous form at controlled temperature and humidity (HPLC, water content)", "format": "physicochemical", "settings": "25° C./60% RH", "experimental": "The dihydrochloride salt, anhydrous form of (3S, 4R, 3′R)-6-[4-(4-amino-5-chloro-2-methoxy-benzoylamino)-3-methoxy-piperidin-1-yl]-hexanoic acid 1-azabicyclo[2.2.2]oct-3′-yl ester, was placed in stability chambers with temperature and humidity controlled, for up to 12 months. The temperature was set at 25° C., and the relative humidity was set at 60%. The samples were assayed at time zero, then at 3, 6, 9, and 12 months using an HPLC method. The HPLC conditions were as follows:\nColumn: Inertsil C8-3, 250 mm length, 3 mm diameter, 5 um particle size\nMobile Phase A: 2000 mL water+3 mL formic acid\nMobile Phase B: 1000 mL methanol+3 mL formic acid\nDetection wavelength: 275 nm"}},
  "note": "Where a name gives a salt, the structure may show the parent alone. Read-outs that look alike come from different tables or passages of the source.",
  "data": [
    {"compound": "COc1cc(N)c(Cl)cc1C(=O)N[C@@H]1CCN(CCCCCC(=O)O[C@H]2CN3CCC2CC3)C[C@@H]1OC", "note": "[Compound 1, (3S, 4R, 3′R)-6-[4-(4-amino-5-chloro-2-methoxy-benzoylamino)-3-methoxy-piperidin-1-yl]-hexanoic acid 1-azabicyclo[2.2.2] oct-3′-yl ester di-hydrochloride salt]", "values": [
      {"measurement": "Stability under GMP storage", "setting": "[1]", "value": "stable"},
      {"measurement": "Physical and chemical stability", "setting": "[2]", "value": "both physically and chemically stable"},
      {"measurement": "Physical and chemical stability", "setting": "[3]; 25° C. and 97% relative humidity (open)", "value": "both physically and chemically stable"},
      {"measurement": "Physical and chemical stability", "setting": "[3]; temperature elevated to 40° C. or 60° C., 96% relative humidity (open)", "value": "underwent liquescence"}
    ]},
    {"compound": "COc1cc(N)c(Cl)cc1C(=O)N[C@@H]1CCN(CCCCCC(=O)O[C@H]2CN3CCC2CC3)C[C@@H]1OC", "note": "[Form I, (3S, 4R, 3′R)-6-[4-(4-amino-5-chloro-2-methoxy-benzoylamino)-3-methoxy-piperidin-1-yl]-hexanoic acid 1-azabicyclo[2.2.2]oct-3′-yl ester]", "values": [
      {"measurement": "Thermodynamic stability among anhydrous forms", "setting": "[4]; based on the outcome of the slurry experiments", "value": "most thermodynamically stable anhydrous form"},
      {"measurement": "Resulting Form", "setting": "[4]; solvent 1-Propanol", "value": "Form 1"},
      {"measurement": "Resulting Form", "setting": "[4]; solvent Acetonitrile", "value": "Form 1"},
      {"measurement": "Resulting Form", "setting": "[4]; solvent Ethanol", "value": "Form 1"},
      {"measurement": "Resulting Form", "setting": "[4]; solvent Methanol", "value": "Form 1"},
      {"measurement": "Resulting Form", "setting": "[4]; solvent Water", "value": "Form 1"}
    ]},
    {"compound": "(3S, 4R, 3′R)-6-[4-(4-amino-5-chloro-2-methoxy-benzoylamino)-3-methoxy-piperidin-1-yl]-hexanoic acid 1-azabicyclo[2.2.2]oct-3′-yl ester", "values": [
      {"measurement": "Dehydration mass loss (TGA)", "setting": "[5]", "value": "absent"},
      {"measurement": "Purity HPLC (Area %)", "setting": "[6]; 0 months", "value": 99.3, "unit": "Area %"},
      {"measurement": "Water Content", "setting": "[6]; 0 months", "value": 0.45, "unit": "%"},
      {"measurement": "Purity HPLC (Area %)", "setting": "[6]; 3 months", "value": 99.2, "unit": "Area %"},
      {"measurement": "Water Content", "setting": "[6]; 3 months", "value": 6.47, "unit": "%"},
      {"measurement": "Purity HPLC (Area %)", "setting": "[6]; 6 months", "value": 99.3, "unit": "Area %"},
      {"measurement": "Water Content", "setting": "[6]; 6 months", "value": 8.47, "unit": "%"},
      {"measurement": "Purity HPLC (Area %)", "setting": "[6]; 9 months", "value": 99.2, "unit": "Area %"},
      {"measurement": "Water Content", "setting": "[6]; 9 months", "value": 8.20, "unit": "%"},
      {"measurement": "Purity HPLC (Area %)", "setting": "[6]; 12 months", "value": 99.3, "unit": "Area %"},
      {"measurement": "Water Content", "setting": "[6]; 12 months", "value": 8.43, "unit": "%"},
      {"measurement": "Decrease in strength of the active ingredient", "setting": "[6]; due to increase in water content over 6 to 12 months", "value": "approximately 8%"}
    ]}
  ]
}
